We go through two molecules from patent publication US20190307754A1, “PDE9 INHIBITORS FOR TREATMENT OF PERIPHERAL DISEASES” (IMARA, INC., priority 2016, published 2019).

One series relates to PDE1. Nature of the series: PDE1 inhibition assay. It counts as biochemical. The procedure: Reactions were initiated by addition of the cyclic nucleotide substrate, and reactions were allowed to proceed for 1 h at room temperature before being terminated through mixing with 20 μL (0.2 mg) yttrium silicate SPA beads (PerkinElmer).
Another series deals with C57Bl/6J mice. In words: Locomotor activity and contextual fear conditioning in C57Bl/6J mice. The series is classed as in vivo. The following applies: gavage, 5 days. The procedure: The exposure of both compounds was also evaluated in the plasma, brain, and eye. […] During the treatment period all animals were assessed for contextual fear conditioning and a subset of 7 animals per group was evaluated for locomotor activity. On Day 5, plasma, brain, and eye tissue were collected 30 minutes after dosing from 3 animals per treated group to measure concentrations of test item.

For series [1], the system named is K562 erythroleukemic cells. Nature of the series: cGMP in cultured K562 cells. It counts as cell-based. The following applies: 16 hours. The procedure:
Hydroxyurea was included as a comparator as it is currently the only FDA approved treatment for this disease (Charache et al., N Engl J Med., 332(20):1317-22. (1995)). One of the proposed mechanisms of action of HU in SCD is that it may generate NO and modulation of intracellular levels of the NO second messenger, cGMP, may represent an effective and cell-specific approach for amplifying intracellular NO-dependent signaling.
K562 cells were cultured at 37° C. in IMDM® to which the required concentrations of test items or dimethyl sulfoxide (DMSO; negative Control) had been added. Plated cells were maintained at 37° C. for 16 hours at the end of which the amount of cGMP was detected by enzyme immunoassay.

Series [2] concerns K562 erythroleukemic cells. In words: HbF in cultured K562 cells. The series is classed as cell-based. The following applies: 3 days. The procedure:
K562 cells were cultured at 37° C. in IMDM® to which the required concentrations of test items or DMSO (negative control) had been added. Plated cells were maintained at 37° C. for 3 days at the end of which the presence of HbF within cells was detected by flow cytometry.

Series [3] deals with Berkeley sickle cell transgenic mice. In words: HbF positive and sickled red blood cells in Berkeley sickle cell transgenic mice. The series is classed as in vivo. The settings on record: 30 mg/kg/day Compound P3.1 or 100 mg/kg/day HU, gavage, 30 days. The procedure:
This study assessed the effects of chronic dosing (30 day) of Compound P3.1 and HU on HbF and cell sickling in a mouse model of sickle cell disease. Berkeley sickle cell transgenic mice (Hbatm1PazHbbtm1Tow Tg(HBA-HBBs)41Paz/J) were divided into groups of 7 to 8 animals and were dosed once daily, by gavage, for 30 days with either vehicle (PEG:water), 30 mg/kg/day of Compound P3.1, or 100 mg/kg/day of HU. This mouse genotype mimics the genetic, hematologic and histopathologic features that are found in humans afflicted with sickle cell anemia, including irreversibly sickled RBCs, anemia and multi-organ pathology. Blood was collected from treated animals on Day 30 for limited routine hematology as well as derivation of the percent of sickled and HbF positive RBCs and total bilirubin. At termination, the spleen was removed and weighed.

The next series relates to HbSS-Townes mice. Nature of the series: Microvascular stasis and hematology in HbSS-Townes mice. The series is classed as in vivo. As for the experimental part: The ability of Compound P3.1 to reduce vaso-occulsion was assessed in HbSS-Townes transgenic sickle mice after transient hypoxia and re-oxygenation. This study assessed the effects of repeated (10 days) oral dosing of Compound P3.1 and HU on microvascular stasis and other hematological markers of sickle cell disease, after transient hypoxia and re-oxygenation, in Townes transgenic sickle mice, a mouse model of sickle cell disease (Hba^tm1(HBA)Tow Hbb^tm2(HBG1,HBB*)Tow/Hbb^tm3(HBG1,HBB)Tow/J). HbSS-Townes mice were divided into groups of 3 mice and were then dosed orally via drinking water with Compound P3.1 at 10 mg/kg/day, Compound P3.1 at 30 mg/kg/day, HU (100 mg/kg/day), or a combination of Compound P3.1 and HU (at doses of 30 and 100 mg/kg/day, respectively) for 10 days. A final group received water containing 0.08% methylcellulose, the vehicle used to prepare the test items, and served as controls. On Day 7 of treatment, the mice were implanted with dorsal skin-fold chambers (DSFC), and on Day 10 of treatment, 20-23 flowing subcutaneous venules in the DSFC window were selected and mapped. After venule selection and mapping, mice were placed in a chamber and exposed to a hypoxic atmosphere (7% O2/93% N2) for 1 hour, after which they were returned to room air. All of the selected venules were re-examined after 1 and 4 hours of re-oxygenation in room air and the number of static (no flow) venules was counted and expressed as percent stasis. On completion of these measurements, blood was collected for clinical pathology with a focus on hematological measures associated with sickle cell disease.

The subject of series [4] is TNF-α activated human endothelial cells. Nature of the series: Micro-channel PMN adhesion assay under flow (FIG. 9). It counts as cell-based. The text has this:
In this study, the effects of Compound P3.1 on PMN adhesion to TNF-α activated human endothelial cell monolayers under flow conditions are investigated. It has been validated in vitro dynamic assay mimics neutrophil recruitment to endothelial cell monolayers under inflammatory conditions (TNF-α activation). In this assay, both control and sickle PMNs adhere to endothelial cells but to different degrees, reflecting in vivo conditions. The human dermal microvascular endothelial cell line HMEC-1 is used in this approach. The potential inhibitory effect of Compound P3.1 is tested in parallel and compared with the effect of HU and other PDE9 inhibitors.
In a first step, the effects of 1 uM Compound P3.1 and 10 uM HU were tested by incubating blood samples from healthy volunteers (n=3-6) (i.e., donors or donor cells) with these molecules.
Adhesion of PMNs from healthy volunteers was assessed under flow conditions, mimicking blood flow, in micro channels (Venaflux, Cellix, Ireland) coated with endothelial cell monolayers cultivated under inflammatory conditions. The adhesion assay was performed with whole fresh blood, previously incubated or not with Compound P3.1, to be closer to the physiological condition of circulation in a person, and to study the interaction between the different blood cells with PMNs.

For series [5], the system named is TNF-α activated endothelium. Nature of the series: Micro-channel assay of platelet, PMN and RBC binding (FIG. 10). It counts as cell-based, human. The settings on record: Compound P3.1 2 or 3 hours, HU 3 hours; bound cells at 30 min. As for the experimental part:
In another assay, using the same method, the reduction of PMN and RBC bindings to TNF-α activated endothelium in a micro channel well was confirmed. Platelet, PMN, and RBC in blood samples from 5 healthy normal volunteers (donors) were labelled with fluorescent dyes. The blood samples were incubated with Compound P3.1 for 2 hours or 3 hours, or HU for 3 hours, prior to running them on micro channels that were previously coated with endothelial cells activated with TNF-α. The % of bound cells was quantified at 30 min. Results are shown in FIG. 10A, FIG. 10B, and FIG. 10C.

The test system of series [6] is CD34+ derived red blood cells from SCD subjects. The settings on record: 5 days.
The mark [7] stands for this setting: Compound P3.1 30 mg/kg/day, HU 100 mg/kg/day, or both, 10 days.

Each structure is given as a SMILES string. pIC50: −log10 of the molar value.

On to `C[C@@H]1CN(Cc2ncccn2)C[C@H]1c1nc2c(cnn2C2CCOCC2)c(=O)[nH]1` (single isomer, unassigned) [AF27873], for which the pIC50 (usually the negative decadic logarithm of the IC50, by convention in mol/L) with PDE1 was 5.60. Besides, the “conditioned freezing vs vehicle controls” value is reported as “significantly (p<0.05) more conditioned freezing” in the series with C57Bl/6J mice (10 mg/kg/day) and “not observed” in the series with C57Bl/6J mice (30 mg/kg/day).

As to `NC(=O)NO` [Hydroxyurea, reference compound], in series [1], the “effect on cGMP levels” value is “dose-dependent and statistically significant increases in cGMP levels”. Also, in series [2] (100 μM), the HbF positive cells came to 92.6%. Further, the “effect on HbF-positive cells by concentration” value in [2] is “statistically significant increases in HbF-positive cells at concentrations of 10 μM and above (but not at 1 and 3 μM)”. Besides, in series [3], the “RBC count, hemoglobin concentration or hematocrit” value was “not associated with any apparent alterations”; the neutrophil levels result is recorded as “reduced neutrophil levels”; the spleen weight result was “statistically significant decreases”; the total bilirubin entry is “statistically significant decreases”. Also, the total leucocyte count entry in series [3] is listed as “statistically significant decreases”. In series [3] (vs controls), the “percentage of HbF positive RBCs” value is recorded as “increases in the percentage of HbF positive RBCs” and the “percentage of sickled RBCs” value is “statistically significant decreases in the percentage of sickled RBCs”. Further, the microvascular stasis entry in the series on HbSS-Townes mice (30 mg/kg/day Compound P3.1 or 100 mg/kg HU, drinking water, 10 days, 1 and 4 hours post hypoxia) is listed as “statistically significant reductions in stasis”. Further, in the series on HbSS-Townes mice (Compound P3.1 30 mg/kg/day or HU 100 mg/kg/day, 10 days), the “total WBC numbers” value was “reduce total WBC numbers”. In the series on HbSS-Townes mice (Compound P3.1 30 mg/kg/day, HU 100 mg/kg/day, or both), the “vessel occlusion induced by transient hypoxia and re-oxygenation” value was “effectively reduced”. For the same molecule, in the series on HbSS-Townes mice (setting [7]), the “number of HbF positive red cells” value is “increase the number of HbF positive red cells” and the “proportion of sickled RBCs” value was “reduce the proportion of sickled RBCs”. In addition, the “adhesion of high-binding donor cells” value in [4] (1 uM Compound P3.1 or 10 uM HU, whole blood of healthy volunteers) was “reduced the binding of 2 of 3 of the high binding donors”. Moreover, the “toxicity to donor samples” value in series [4] (10 uM HU) is 3 of 9 of the donor samples did not survive HU treatment. The platelet binding entry in [5] is listed as “did not impact platelet binding”. For the same molecule, in series [6] (30 μM HU, remaining 3 subjects), the “amount of HbF within cells (mean MFI)” value is reported as 19,383, the “mean MFI of HbF relative to controls” value is recorded as 258% and the “percentage of HbF positive CD36+ cells (mean)” value is given as 23.9%. In addition, in series [6] (human, 30 μM), the cell death result is “greater than 80%” and the viability – broadly, a per cent measure of how many cells are alive, often set against a control – was less than 80%.
